# According to US8962689B2, “Medium chain dicarboxylic acids, their derivates and metabolic disorders” (Nestec S.A., priority 2008, dated 2015):
# How the values were obtained:
# Type in all cases: in vivo, human
# [1] = Time course of plasma sebacate in T2D subjects
# Method: FIG. 5 reports the time course of plasma sebacate in T2D subjects.
# FIG. 5 reports the time course of plasma sebacate in T2D subjects. […] Another difference was that in diabetics the two curves (10 g vs. 23 g) were overlapped up to 320 minutes, and then the concentration of C10 declined slower in the 23 g C10 fed patients compared with 10 g of C10.
# healthy subjects = test: Cross-over single-blind pilot study, mixed formula meal with sebacic acid (C10), healthy subjects; conditions: for Glucose AUC / Insulin AUC / Total ISR (insulin secretion rate): 0-420 minutes, mean
# Method: (§1) Ingestion of the different meals was performed at 100 min.
# (§2) The acute effects of oral ingestion of sebacic acid on postprandial glycemia, hepatic gluconeogenesis and glycogenolysis were tested in T2D subjects and healthy volunteers during ingestion of a mixed meal at breakfast.
# (§3) Type 2 diabetic patients and healthy subjects were matched for gender distribution, age, and body mass index as reported in the following table 1:
# (§4) The subjects ingested the following formula meal
# (§5) No C10 group (control group): 50% CHO, 15% protein and 35% lipids plus water
# (§6) 10 g C10 group: 50% CHO, 15% protein and 35% lipids plus 10 g of C10 plus water
# [2] = Time course of plasma sebacate in healthy subjects
# Method: FIG. 4 reports the time course of plasma sebacate in healthy subjects.
# FIG. 4 reports the time course of plasma sebacate in healthy subjects. The peak was reached after 320 minutes from the beginning of the experiment, i.e. […] after the ingestion of the meal enriched with C10. C10 peaked later (delay of 40 minutes) after 23 g C10 ingestion.
# T2D subjects = test: Cross-over single-blind pilot study, mixed formula meal with sebacic acid (C10), T2D subjects; conditions: for EGP (endogenous glucose production) / Gluconeogenesis / Glucose clearance / Total Ra (rate of appearance of deuterated glucose) / Glucose AUC / Insulin AUC / Total ISR (insulin secretion rate): type 2 diabetic subjects; for Glucose AUC / Insulin AUC / Total ISR (insulin secretion rate): 0-420 minutes, mean
# Method: as §1, §2, §3, §4, §5, §6
# [3] = healthy subjects, 10 g C10 meal
# [4] = healthy subjects, 23 g C10 meal
# [5] = T2D subjects (n=10), 10 g meal, vs control meal
# [6] = T2D subjects (n=10), 23 g C10 DA meal, vs control meal
structure (smiles),measurement,setting,value
"O=C(O)CCCCCCCCC(=O)O [C10, sebacic acid]",Plasma C10 peak times compared with controls,[1]; T2D subjects,the peak times were maintained
same,Plasma C10 concentration relative to values reached in controls,[1]; T2D subjects vs healthy controls,about 1.5 times
same,Change in postprandial insulinemia AUC,"healthy subjects; healthy subjects (n=10), 23 g sebacic acid, vs control meal",−38%
same,EGP (endogenous glucose production),healthy subjects; [3],6.30 ± 2.45 μmol · min^−1 · kgffm^−1
same,Gluconeogenesis,healthy subjects; [3],31.28 ± 5.07%
same,Glucose clearance,healthy subjects; [3],2.73 ± 0.24 mL/min/kg
same,Total Ra (rate of appearance of deuterated glucose),healthy subjects; [3],20.60 ± 2.88 μmol · min^−1 · kgffm^−1
same,Glucose AUC,healthy subjects; [3],37400 mg·min/dL
same,Insulin AUC,healthy subjects; [3],51100 pM·min
same,Total ISR (insulin secretion rate),healthy subjects; [3],101.15 nmol
same,EGP (endogenous glucose production),healthy subjects; [4],6.172 ± 0.68 μmol · min^−1 · kgffm^−1
same,Gluconeogenesis,healthy subjects; [4],31.20 ± 3.63%
same,Glucose clearance,healthy subjects; [4],2.74 ± 0.26 mL/min/kg
same,Total Ra (rate of appearance of deuterated glucose),healthy subjects; [4],21.20 ± 1.30 μmol · min^−1 · kgffm^−1
same,Glucose AUC,healthy subjects; [4],38100 mg·min/dL
same,Insulin AUC,healthy subjects; [4],39200 pM·min
same,Total ISR (insulin secretion rate),healthy subjects; [4],93.60 nmol
same,"Glucose clearance, result in words","healthy subjects; healthy subjects, C10 ingestion",significantly improved
same,"ISR, result in words","healthy subjects; healthy subjects, meal with lipids substituted with 23 g C10",significantly reduced
same,Delay of plasma C10 peak after 23 g C10 ingestion,[2]; 23 g C10 ingestion,40 min
same,Time of plasma sebacate peak after the ingestion of the meal,"[2]; oral, meal enriched with C10",200 min
same,Time of plasma sebacate peak from the beginning of the experiment,"[2]; oral, meal enriched with C10",320 min
same,Change in postprandial Endogenous Glucose Production,T2D subjects; [5],−10%
same,Change in postprandial Gluconeogenesis (%),T2D subjects; [5],−2.1%
same,Change in postprandial glycemia area under the curve (AUC),T2D subjects; [5],−17%
same,Increase in postprandial glucose clearance,T2D subjects; [5],+12.6%
same,Change in postprandial Endogenous Glucose Production,T2D subjects; [6],−9%
same,Change in postprandial Gluconeogenesis (%),T2D subjects; [6],−2.3%
same,Change in postprandial glycemia area under the curve (AUC),T2D subjects; [6],−16%
same,Change in postprandial insulin secretion rate,T2D subjects; [6],−35%
same,Increase in postprandial glucose clearance,T2D subjects; [6],+8.2%
same,"Glucose clearance, result in words","T2D subjects; diabetic patients, C10 ingestion",significantly improved
same,"GNG, result in words","T2D subjects; diabetic patients, both C10 enriched meals",significantly reduced
same,"Glucose AUC, result in words","T2D subjects; diabetic patients, meal containing 10 g of C10",significantly lower
same,"ISR, result in words","T2D subjects; diabetic patients, meal with lipids substituted with 23 g C10",significantly reduced
same,EGP (endogenous glucose production),T2D subjects; 10 g C10 meal,7.81 ± 3.27 μmol · min^−1 · kgffm^−1
same,Gluconeogenesis,T2D subjects; 10 g C10 meal,40.862 ± 3.62 %
same,Glucose clearance,T2D subjects; 10 g C10 meal,1.76 ± 0.13 mL/min/kg
same,Total Ra (rate of appearance of deuterated glucose),T2D subjects; 10 g C10 meal,19.60 ± 2.41 μmol · min^−1 · kgffm^−1
same,Glucose AUC,T2D subjects; 10 g C10 meal,43700 mg·min/dL
same,Insulin AUC,T2D subjects; 10 g C10 meal,33500 pM·min
same,Total ISR (insulin secretion rate),T2D subjects; 10 g C10 meal,213.69 nmol
same,EGP (endogenous glucose production),T2D subjects; 23 g C10 meal,7.00 ± 2.47 μmol · min^−1 · kgffm^−1
same,Gluconeogenesis,T2D subjects; 23 g C10 meal,40.72 ± 4.00 %
same,Glucose clearance,T2D subjects; 23 g C10 meal,1.71 ± 0.21 mL/min/kg
same,Total Ra (rate of appearance of deuterated glucose),T2D subjects; 23 g C10 meal,20.32 ± 2.19 μmol · min^−1 · kgffm^−1
same,Glucose AUC,T2D subjects; 23 g C10 meal,44200 mg·min/dL
same,Insulin AUC,T2D subjects; 23 g C10 meal,29500 pM·min
same,Total ISR (insulin secretion rate),T2D subjects; 23 g C10 meal,142.27 nmol
same,"EGP, result in words","T2D subjects; type 2 diabetics, C10 enriched meals compared with the standard meal",significantly reduced
